The text below walks through data of patent publication US11680060B2, “Bicycloheptane pyrrolidine orexin receptor agonists” (Merck Sharp & Dohme LLC, priority 2020, dated 2023).

The target in the test is human OX2R (Homo sapiens (Human), UniProt O43614). Briefly: IPOne (IP-1) assay in CHO cells expressing human OX2R. The class given is cell-based. Particulars: for IC50: CHO cells expressing human OX2R, IP-One detection, 2 hours incubation, EC50 = inflection point of four parameter logistic fit, read-out: hOX2R_IP_IC50; for Emax: CHO, read-out: Emax (%); for Emax / Emax (%): percentage of mean max effect of a reference compound at 1 uM (100% activity by comparison to Orexin A), human OX2R. The text has this: The utility of the compounds in accordance with the present invention as orexin receptor OX1R and/or OX2R agonists may be readily determined without undue experimentation by methodology well known in the art. Both the OX1R and/or OX2R G-coupled protein receptors (GPCRs) couple through the Gαq signaling pathway, which ultimately promotes calcium mobilization via inositol triphosphate (IP3) production. The half-life of IP-3 is relatively short, being rapidly metabolized to inositol monophosphate (IP-1), which can be readily detected using a commercially available assay kit (IP-One; Cisbio; cat #621PAPEC) coupled with a cell line expressing the target receptor(s) of interest. The utility of the compounds in accordance with the present invention as orexin receptor OX1R and/or OX2R agonists may be determined utilizing this assay.
Chain of human OX2R (O43614 whole entry): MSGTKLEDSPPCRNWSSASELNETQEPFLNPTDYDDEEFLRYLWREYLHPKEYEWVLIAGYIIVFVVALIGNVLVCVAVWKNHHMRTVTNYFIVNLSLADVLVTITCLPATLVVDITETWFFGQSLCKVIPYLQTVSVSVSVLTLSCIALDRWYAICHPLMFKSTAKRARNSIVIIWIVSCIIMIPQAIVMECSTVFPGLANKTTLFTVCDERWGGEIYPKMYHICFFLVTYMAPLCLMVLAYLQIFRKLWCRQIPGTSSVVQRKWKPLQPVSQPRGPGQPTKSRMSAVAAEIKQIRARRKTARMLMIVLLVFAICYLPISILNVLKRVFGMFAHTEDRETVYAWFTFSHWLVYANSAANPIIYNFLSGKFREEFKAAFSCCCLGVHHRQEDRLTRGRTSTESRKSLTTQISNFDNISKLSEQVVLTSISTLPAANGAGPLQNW
In a typical experiment, the OX1 and OX2 receptor agonist activity is determined in accordance with the following general experimental method. Chinese hamster ovary (CHO) cells expressing human OX1R and/or the human OX2R were grown in Iscove's modified DMEM containing glutaMAX™, 1% G418, 100 U/mL penicillin, 100 μg/mL streptomycin and 10% heat-inactivated qualified fetal bovine serum (FBS). The OX2R cells were seeded at 10,000 cells/well/50 μL and the OX1R cells were seeded at 20,000 cells/well/50 μL into 384-well white tissue culture plates (Greiner; cat #781080). All cell/media reagents were from GIBCO-Invitrogen Corp. The seeded cell plate(s) were incubated at 37° C. with 5% CO2 and 85% humidity for 20-24 hours. On the day of the assay, assay-ready compound plates were prepared using an acoustic liquid handler (ECHO; Labcyte), which dispensed sufficient volume of test compound stock (10 mM in DMSO) or 100% DMSO to prepare 10 point, ½-log dilutions in a final volume of 202.5 nL/well in all test wells of a 384-well diamond plate (Labcyte). Following completion of assay-ready plates, importantly, the next three steps were performed with minimal delay: 1) 20 μl of 1× stimulation buffer was added to the compound plate using a Multidrop Combi (small cassette, Thermo Fisher Scientific cat #24073290); 2) culture medium was removed from the cell plate using the Bluewasher plate washer (gentle spin; BlueCatBio); 3) 14 μl of compound/stimulation buffer mixture was added to the cell plate using a Bravo liquid handler (Agilent) prior to incubating cell plates at 37° C. with 5% CO2 and 85% humidity for 1 or 2 hours (OX1R and OX2R, respectively). During this incubation, IP-one detection reagents were prepared (38:1:1 lysis buffer:D2:AB-cryptate reagents). Six μL of mixed detection reagents were added to the cell plate using a Multidrop Combi (small cassette, Thermo Fisher Scientific cat #24073290) and incubated 60 minutes at room temperature in the dark. Fluorescence signal was detected using an Envision plate reader (Perkin Elmer) [LANCE/DELFIA Dual Enh (Em: APC 665; Ex: Cy5 620)].
For each compound, data were fit to a four parameter logistic fit (ActivityBase software) and the EC50 was reported as the inflection point of the resulting curve. Percent effect for each test compound was determined as the percentage of sample raw value/mean max effect, where the mean max effect was derived from the mean raw value of 32 control wells per assay plate (using Orexin A (cat #003-30) at 1 μM for human OX1R and a reference compound at 1 uM with 100% activity previously established by comparison to Orexin A for human OX2R). The intrinsic orexin receptor agonist activity of a compound which may be used in the present invention may be determined by these assays.

One may read the Emax as the size of the effect at its maximum, as opposed to the concentration needed. `COC(=O)N1[C@H](C(F)F)C[C@H](NS(=O)(=O)CF)[C@@H]1CO[C@H]1CC[C@@]2(c3ncc(F)cn3)C[C@H]2C1` (single isomer, unassigned) [Example 113]: the IC50 stood at 0.6 nM and the Emax is 103%. For the compound `C[C@@H]1C[C@H](NS(C)(=O)=O)[C@H](CO[C@H]2CC[C@@]3(c4ncc(F)cn4)C[C@H]3C2)N1C(=O)OCC1(C)CC1(F)F` (stereo partly drawn) [Example 57, (2,2-difluoro-1-methylcyclopropyl)methyl (2R,3S,5R)-2-((((1S,3S,6R)-6-(5-fluoropyrimidin-2-yl)bicyclo[4.1.0]heptan-3-yl)oxy)methyl)-5-methyl-3-(methylsulfonamido)pyrrolidine-1-carboxylate], the maximal response (Emax) came to 102%. In the case of `COC(=O)N1[C@H](C)C[C@H](NS(C)(=O)=O)[C@@H]1COC1CCC2(c3ncccn3)CC2C1` (single isomer, unassigned) [Example 16], the IC50 worked out at 16.4 nM and the “Emax (%)” value is given as 102.2%.

Regarding `C[C@@H]1C[C@H](NS(C)(=O)=O)[C@H](CO[C@H]2CC[C@@]3(c4ncc(F)cn4)C[C@H]3C2)N1C(=O)OCC(F)(F)F` [Example 65, 2,2,2-trifluoroethyl (2R,3S,5R)-2-((((1S,3S,6R)-6-(5-fluoropyrimidin-2-yl)bicyclo[4.1.0]heptan-3-yl)oxy)methyl)-5-methyl-3-(methylsulfonamido)pyrrolidine-1-carboxylate], the Emax worked out at 102%. For the compound `COC(=O)N1[C@H](C)C[C@H](NS(C)(=O)=O)[C@@H]1CO[C@@H]1CC[C@]2(c3ncc(Cl)cn3)C[C@@H]2C1` [Example 141, methyl (2R,3S,5R)-2-((((1R,3R,6S)-6-(5-chloropyrimidin-2-yl)bicyclo[4.1.0]heptan-3-yl)oxy)methyl)-5-methyl-3-(methylsulfonamido)pyrrolidine-1-carboxylate], the Emax stood at 98.7%. Turning to `C[C@@H]1C[C@H](NS(C)(=O)=O)[C@H](CO[C@H]2CC[C@@]3(c4ncc(F)cn4)C[C@H]3C2)N1C(=O)OCC1(F)CCC1` [Example 53, (1-fluorocyclobutyl)methyl (2R,3S,5R)-2-((((1S,3S,6R)-6-(5-fluoropyrimidin-2-yl)bicyclo[4.1.0]heptan-3-yl)oxy)methyl)-5-methyl-3-(methylsulfonamido)pyrrolidine-1-carboxylate], the maximal response (Emax) came out at 104%. For the compound `COC(=O)N1[C@H](C)C[C@H](NS(=O)(=O)N2CCC2)[C@@H]1CO[C@@H]1CC[C@]2(c3ncc(F)cn3)C[C@@H]2C1` [Example 43, methyl (2R,3S,5R)-3-(azetidine-1-sulfonamido)-2-((((1R,3R,6S)-6-(5-fluoropyrimidin-2-yl)bicyclo[4.1.0]heptan-3-yl)oxy)methyl)-5-methylpyrrolidine-1-carboxylate], the maximum response (Emax) was 97.8%.

As for `COC(=O)N1[C@H](C(F)F)C[C@H](NS(=O)(=O)C2CC2)[C@@H]1COC1CCC2(c3ncc(F)cn3)CC2C1` (stereo partly drawn) [Example 116, methyl (2R,3S,5S)-3-(cyclopropanesulfonamido)-5-(difluoromethyl)-2-(((6-(5-fluoropyrimidin-2-yl)bicyclo[4.1.0]heptan-3-yl)oxy)methyl)pyrrolidine-1-carboxylate], the maximum response (Emax) stood at 102%. In the case of `COC(=O)N1[C@H](C)C[C@H](NS(=O)(=O)N(C)C)[C@@H]1COC1CCC2(c3cnccn3)CC2C1` (single isomer, unassigned) [Example 14], the “Emax (%)” value was 93.5%. `CC(C)OC(=O)N1[C@H](C)C[C@H](NS(C)(=O)=O)[C@@H]1CO[C@H]1CC[C@@]2(c3ncc(F)cn3)C[C@H]2C1` [Example 28, isopropyl (2R,3S,5R)-2-((((1S,3S,6R)-6-(5-fluoropyrimidin-2-yl)bicyclo[4.1.0]heptan-3-yl)oxy)methyl)-5-methyl-3-(methylsulfonamido)pyrrolidine-1-carboxylate]: the maximum response (Emax) amounted to 103%. As for `COC(=O)N1CC[C@H](NS(C)(=O)=O)[C@@H]1CO[C@@H]1CC[C@]2(c3ncccn3)C[C@@H]2C1` (single isomer, unassigned) [Example 176], the IC50 worked out at 2030 nM and the maximum response (Emax) worked out at 94.7%.

As for `C[C@@H]1C[C@H](NS(C)(=O)=O)[C@H](CO[C@H]2CC[C@@]3(c4ncc(F)cn4)C[C@H]3C2)N1C(=O)OCCF` [Example 62, 2-Fluoroethyl (2R,3S,5R)-2-((((1S,3S,6R)-6-(5-fluoropyrimidin-2-yl)bicyclo[4.1.0]heptan-3-yl)oxy)methyl)-5-methyl-3-(methylsulfonamido)pyrrolidine-1-carboxylate], the Emax came to 100%. For the compound `CC(C)OC(=O)N1[C@H](C)C[C@H](NS(=O)(=O)C(F)F)[C@@H]1COC1CCC2(c3ncc(F)cn3)CC2C1` (single isomer, unassigned) [Example 93], the IC50 turned out to be 458 nM and the “Emax (%)” value amounted to 40.6%. On to `CC(C)OC(=O)N1[C@H](C)C[C@H](NS(=O)(=O)C(F)F)[C@@H]1COC1CC[C@]2(c3ncc(F)cn3)CC2C1` (stereo partly drawn) [Example 110], for which the “Emax (%)” value is 100.9%.

Regarding `COC(=O)N1[C@H](C)C[C@H](NS(C)(=O)=O)[C@@H]1COC1CCC2(c3ncc(F)c(C4CC4)n3)CC2C1` (stereo partly drawn) [Example 74, methyl (2R,3S,5R)-2-(((6-(4-cyclopropyl-5-fluoropyrimidin-2-yl)bicyclo[4.1.0]heptan-3-yl)oxy)methyl)-5-methyl-3-(methylsulfonamido)pyrrolidine-1-carboxylate], the Emax is 84%. In the case of `COC(=O)N1[C@H](C)C[C@H](NS(=O)(=O)C(F)F)[C@@H]1CO[C@@H]1CC[C@]2(c3ncccn3)C[C@@H]2C1` [Example 69, methyl (2R,3S,5R)-3-((difluoromethyl)sulfonamido)-5-methyl-2-((((1R,3R,6S)-6-(pyrimidin-2-yl)bicyclo[4.1.0]heptan-3-yl)oxy)methyl)pyrrolidine-1-carboxylate], the Emax came out at 101%. `COC(=O)N1[C@H](C)C[C@H](NS(=O)(=O)C(F)(F)F)[C@@H]1CO[C@@H]1CC[C@]2(c3ncc(F)cn3)C[C@@H]2C1` [Example 44, methyl (2R,3S,5R)-2-((((1R,3R,6S)-6-(5-fluoropyrimidin-2-yl)bicyclo[4.1.0]heptan-3-yl)oxy)methyl)-5-methyl-3-((trifluoromethyl)sulfonamido)pyrrolidine-1-carboxylate]: the maximum response (Emax) worked out at 103%.

Turning to `COC(=O)N1[C@H](C(F)F)C[C@H](NS(=O)(=O)C(F)F)[C@@H]1CO[C@H]1CC[C@@]2(c3ncc(F)cn3)C[C@H]2C1` (single isomer, unassigned) [Example 112], the IC50 is 0.78 nM and the maximum response (Emax) amounted to 100%. In the case of `CC(C)OC(=O)N1CCC[C@H](NS(C)(=O)=O)[C@@H]1CO[C@H]1CC[C@@]2(c3ncc(F)cn3)C[C@H]2C1` (single isomer, unassigned) [Example 125], the IC50 is 0.95 nM and the maximal response (Emax) was 103%.

For `COC(=O)N1[C@H](C)C[C@H](NS(=O)(=O)C(C)C)[C@@H]1CO[C@H]1CC[C@@]2(c3ncc(F)cn3)C[C@H]2C1` [Example 38, methyl (2R,3S,5R)-2-((((1S,3S,6R)-6-(5-fluoropyrimidin-2-yl)bicyclo[4.1.0]heptan-3-yl)oxy)methyl)-5-methyl-3-((1-methylethyl)sulfonamido)pyrrolidine-1-carboxylate], the maximal response (Emax) amounted to 100%. As for `COC(=O)N1[C@H](C)C[C@H](NS(C)(=O)=O)[C@@H]1CO[C@H]1CC[C@@]2(c3ncc(Cl)cn3)C[C@H]2C1` [Example 142, methyl (2R,3S,5R)-2-((((1S,3S,6R)-6-(5-chloropyrimidin-2-yl)bicyclo[4.1.0]heptan-3-yl)oxy)methyl)-5-methyl-3-(methylsulfonamido)pyrrolidine-1-carboxylate], the Emax came out at 102%.
